Data on one molecule can be found in patent US8163702B2, “Treatment of melanoma” (SciClone Pharmaceuticals, Inc., priority 2006, dated 2012).

Molecules are shown by their SMILES.

For one assay, the system named is B16 melanoma. Briefly: B16 melanoma tumor growth, tumor weight and survival in C57/Bl6 mice, i.p. treatment (Example 1). As to conditions: for animals surviving: After 26 days. The class given is in vivo. How it is done: Tumors were induced by injecting 1×10^6 B16 melanoma cells subcutaneously in the hind leg of C57/Bl6 syngeneic mice. Mice were randomized into 5 groups of 10 animals and treated with SCV-07 at doses of 0.001, 0.01, or 0.10 mg/kg administered daily i.p. for 3 consecutive days for 2 weeks, starting 3 days after tumor implantation. Control groups were treated with saline or dacarbazine (DTIC) at a dose of 50 mg/kg i.p. for 3 days. Tumor growth was assessed every 3 days by a caliper and tumor weight was measured upon death.
Mice were injected with B16 melanoma cells and divided into 5 groups of 10 mice each. Control mice were given injections of saline or dacarbazine (DTIC). The effects of different doses of SCV-07 were examined with respect to tumor growth rate and survival time.

The next assay has as its system B16 cell line. Briefly: In vitro cell sensitivity: cell proliferation and viability by trypan blue dye exclusion. The class given is cell-based, murine. The method, then:
In vitro cell sensitivity studies were performed on a B16 cell line. Subconfluent melanoma cells were harvested, suspended in complete medium and seeded into 24-well plates (10^5 cells in a final volume of 2 ml/well). The cells were treated in triplicate wells for 24, 48 or 72 hr of culture with graded concentrations of SCV-07 ranging from 0.1 to 100 μg/ml. Cell proliferation and viability were determined by the trypan blue dye exclusion method by manually counting the cells with a hemocytometer.

The subject of the next assay is thymocyte and lymphocyte. As to conditions: cited from earlier work.
The test system of a further assay is spleen lymphocytes. As to conditions: cited from earlier work.
The test system of the next assay is bone marrow cells. As to conditions: cited from earlier work.
In another assay the test system is T helper cells. As to conditions: previous studies; cited from earlier work.

As for `N[C@H](CCC(=O)N[C@@H](Cc1c[nH]c2ccccc12)C(=O)O)C(=O)O` [SCV-07, γ-D-glutamyl-L-tryptophan], the animals surviving in the assay with B16 melanoma (SCV-07 highest dose (0.10 mg/kg i.p.)) was 21%; in the assay on B16 melanoma (SCV-07 lower doses) it was “no surviving animals”. Also, the “MEAN TUMOR VOLUME” value in the assay on B16 melanoma (DAY 10 after tumor inoculation, SCV-07 0.001 mg/kg i.p.) was 540 ± 180 mm^3; in the assay with B16 melanoma (DAY 10 after tumor inoculation, SCV-07 0.01 mg/kg i.p.) it was 490 ± 120 mm^3; in the assay with B16 melanoma (DAY 10 after tumor inoculation, SCV-07 0.10 mg/kg i.p.) it was 420 ± 150 mm^3; in the assay on B16 melanoma (DAY 17 after tumor inoculation, SCV-07 0.001 mg/kg i.p.), 625 ± 270 mm^3; in the assay with B16 melanoma (DAY 17 after tumor inoculation, SCV-07 0.01 mg/kg i.p.), 581 ± 210 mm^3; with B16 melanoma (DAY 17 after tumor inoculation, SCV-07 0.10 mg/kg i.p.), 495 ± 190 mm^3. In addition, the “MEAN TUMOR VOLUME” value with B16 melanoma (DAY 24 after tumor inoculation, SCV-07 0.001 mg/kg i.p.) is on record as 880 ± 240 mm^3; with B16 melanoma (DAY 24 after tumor inoculation, SCV-07 0.01 mg/kg i.p.), 720 ± 150 mm^3; with B16 melanoma (DAY 24 after tumor inoculation, SCV-07 0.10 mg/kg i.p.) it was 533 ± 170 mm^3. Besides, in the assay on B16 melanoma (SCV-07 0.001, 0.01, 0.10 mg/kg i.p.), the tumor growth entry is “inhibited tumor growth in a dose-dependent manner”. Besides, the “mean tumor weight lower” value with B16 melanoma (highest dose of SCV-07 (0.10 mg/kg i.p.), weight upon death) turned out to be 35%; in the assay on B16 melanoma (lower doses of SCV-07 (0.001, 0.01 mg/kg i.p.)) it was 20%. In the assay with B16 cell line (24 and 48 hrs of culture, 0.1 to 100 μg/ml), the “effect on cell growth by direct cell counts” value is “dose-dependent inhibitory effect on cell growth”. Also, the “effect on number of viable cells” value with B16 cell line (higher concentration (100 μg/ml)) is reported as “toxic effects with a dramatic decrease in the number of viable cells”. In the assay with B16 cell line (low concentration), the “effect on cell growth” value is listed as “substantially cytostatic”. For the same molecule, in the assay on thymocyte and lymphocyte, the “Con-A-induced thymocyte and lymphocyte proliferation” value is given as “increases”. Besides, the “Con-A-induced interleukin-2 (IL-2) production and IL-2 receptor expression” value in the assay with spleen lymphocytes is listed as “increases”. Further, in the assay on bone marrow cells, the “expression of Thy-1.2” value is “stimulates”. Also, in the assay on T helper cells, the “IFN-γ production by thymic and spleen cells and circulating level in serum” value is “increased”. Further, the “T helper cell polarization” value in the assay on T helper cells was “stimulates a shift of T helper cells towards a TH1-like immune response”.
